Laboratory results published in ChEMBL document CHEMBL5233269, “Anticancer potential of spirocompounds in medicinal chemistry: A pentennial expedition” (Eur J Med Chem, 2021).
Converted amounts (≈) assume the structure as drawn.

Tests used:
[1] = target: cGMP-specific 3',5'-cyclic phosphodiesterase (Homo sapiens) (UniProt O76074); experiment: Inhibition of PDE5 (unknown origin) at 3 nM relative to control
MCF7 [2] = experiment: Antiproliferative activity against human MCF7 cells; format: functional, cell-based
A549 [3] = experiment: Antiproliferative activity against human A549 cells; format: functional, cell-based
PC-3 = experiment: Anticancer activity against human PC-3 cells at 100 uM relative to control; format: functional
LNCaP = experiment: Anticancer activity against human LNCaP cells at 100 uM relative to control; format: functional
A-375 [4] = experiment: Cytotoxicity against human A-375 cells at 100 ug/ml incubated for 24 hrs by MTT assay; format: functional; conditions: dose 100 µg/ml
A-375 [5] = experiment: Cytotoxicity against human A-375 cells at 10 ug/ml incubated for 24 hrs by MTT assay; format: functional; conditions: dose 10 µg/ml
MCF7 [6] = experiment: Antiproliferative activity against human MCF7 cells incubated for 2 days by MTT assay; format: functional, cell-based; conditions: MCF7, 48 h
HFF = experiment: Antiproliferative activity against human HFF cells incubated for 2 days by MTT assay; format: functional, cell-based; conditions: 48 h
HT-29 = experiment: Antiproliferative activity against human HT-29 cells incubated for 2 days by MTT assay; format: functional, cell-based; conditions: HT-29, 48 h
HepG2 [7] = experiment: Antiproliferative activity against human HepG2 cells incubated for 2 days by MTT assay; format: functional, cell-based; conditions: HepG2, 48 h
T47D = experiment: Antiproliferative activity against human T47D cells incubated for 2 days by MTT assay; format: functional, cell-based; conditions: 48 h
A549 [8] = experiment: Cytotoxicity against human A549 cells assessed as inhibition of tumor cell proliferation incubated for 72 hrs by MTT assay; format: functional, cell-based; conditions: A549, 72 h
ECa-109 cell line = experiment: Cytotoxicity against human EC109 cells assessed as inhibition of tumor cell proliferation incubated for 72 hrs by MTT assay; format: functional, cell-based; conditions: ECa-109, 72 h
SMMC-7721 = experiment: Cytotoxicity against human SMMC-7721 cells assessed as inhibition of tumor cell proliferation incubated for 72 hrs by MTT assay; format: functional, cell-based; conditions: SMMC-7721, 72 h
MGC-803 = experiment: Cytotoxicity against human MGC-803 cells assessed as inhibition of tumor cell proliferation incubated for 72 hrs by MTT assay; format: functional, cell-based; conditions: MGC-803, 72 h
HeLa [9] = experiment: Anticancer activity against human HeLa cells assessed as inhibition of cell proliferation; format: functional, cell-based
B16-F10 = experiment: Anticancer activity against mouse B16-F10 cells; format: functional, cell-based
[10] = target: Tumour suppressor p53/oncoprotein Mdm2 (Homo sapiens) (UniProt P04637+Q00987); experiment: Inhibition of MDM2/p53 (unknown origin) interaction at 10 uM relative to control; format: protein assay
HeLa [11] = experiment: Cytotoxicity against human HeLa cells; format: functional, cell-based
[12] = Cytotoxicity against green monkey Vero cells; format: toxicity, cell-based; conditions: green monkey (Chlorocebus sabaeus)
MCF7 [13] = experiment: Anticancer activity against human MCF7 cells incubated for 48 hrs by MTT assay; format: functional, cell-based; conditions: MCF7, 48 h
HCT-116 = experiment: Anticancer activity against human HCT-116 cells incubated for 48 hrs by MTT assay; format: functional, cell-based; conditions: HCT-116, 48 h
[14] = Anticancer activity against human U87 cells incubated for 48 hrs by MTT assay; format: functional, cell-based, U-87MG ATCC; conditions: U-87 MG
A549 [15] = experiment: Anticancer activity against human A549 cells incubated for 48 hrs by MTT assay; format: functional, cell-based; conditions: A549, 48 h
HepG2 [16] = experiment: Anticancer activity against human HepG2 cells incubated for 48 hrs by MTT assay; format: functional, cell-based; conditions: HepG2, 48 h
MDA-MB-231 = experiment: Antiproliferative activity against human MDA-MB-231 cells assessed as inhibition of cell viability by MTT assay; format: functional, cell-based
MCF7 [17] = experiment: Antiproliferative activity against human MCF7 cells by MTT assay; format: functional, cell-based

Chain of Tumour suppressor p53/oncoprotein Mdm2 (Homo sapiens) (P04637 whole entry, looked up): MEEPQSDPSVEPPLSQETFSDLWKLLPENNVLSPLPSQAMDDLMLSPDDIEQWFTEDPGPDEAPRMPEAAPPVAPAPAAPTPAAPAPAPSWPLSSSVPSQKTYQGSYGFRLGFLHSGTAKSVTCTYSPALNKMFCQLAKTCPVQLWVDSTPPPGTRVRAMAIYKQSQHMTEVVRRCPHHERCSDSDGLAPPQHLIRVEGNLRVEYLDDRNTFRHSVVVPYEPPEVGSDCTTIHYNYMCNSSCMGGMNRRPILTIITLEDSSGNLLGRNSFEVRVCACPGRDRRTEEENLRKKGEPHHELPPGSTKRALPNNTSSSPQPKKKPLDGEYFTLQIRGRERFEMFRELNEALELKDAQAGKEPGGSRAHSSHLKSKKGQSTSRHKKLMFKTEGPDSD
Chain of Tumour suppressor p53/oncoprotein Mdm2 (Homo sapiens) (Q00987 whole entry, looked up): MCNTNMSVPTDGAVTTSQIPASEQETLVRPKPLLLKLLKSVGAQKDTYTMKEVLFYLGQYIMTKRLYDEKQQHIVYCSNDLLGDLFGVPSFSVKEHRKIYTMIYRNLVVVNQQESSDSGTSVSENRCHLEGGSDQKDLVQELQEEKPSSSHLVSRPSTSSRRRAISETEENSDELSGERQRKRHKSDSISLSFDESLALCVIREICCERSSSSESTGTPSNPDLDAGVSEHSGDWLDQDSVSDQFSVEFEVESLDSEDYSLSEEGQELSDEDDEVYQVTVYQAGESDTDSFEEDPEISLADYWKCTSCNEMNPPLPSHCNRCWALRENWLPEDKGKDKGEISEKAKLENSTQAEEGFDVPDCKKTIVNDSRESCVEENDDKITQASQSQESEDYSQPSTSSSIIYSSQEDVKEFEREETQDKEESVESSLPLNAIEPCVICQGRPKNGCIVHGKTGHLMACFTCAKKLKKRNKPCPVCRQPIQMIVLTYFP

O=C1NC2(CCCCC2)Nc2ccccc21
inhibition [1]: 100%

N#CC1=C(N)Oc2c(c(=O)oc3ccccc23)C12C(=O)N(Cc1cccc(Br)c1)c1ccccc12 (stereo not drawn)
IC50 (MCF7 [2]): 16.2 µM
IC50 (A549 [3]): 29.3 µM

O=C(/C=C/c1ccc(F)cc1)c1ccc(OP2(Oc3ccc(C(=O)/C=C/c4ccc(F)cc4)cc3)=NP3(=NP4(=N2)Oc2ccccc2-c2ccccc2O4)Oc2ccccc2-c2ccccc2O3)cc1
Activity (PC-3): 35.93%
Activity (LNCaP): 57.66%

CN1CC(n2ccc3ccccc32)C(C#N)(C#N)C12C(=O)N(Cc1ccccc1)c1ccccc12 (stereo not drawn)
Activity (A-375 [4]): 95.86%
Activity (A-375 [5]): 97.29%

COc1cc(C2=NOC3(Cc4ccccc4C3=O)C2c2ccc(S(C)(=O)=O)cc2)cc(OC)c1OC (stereo not drawn)
IC50 (MCF7 [6]): 24.2 µM
IC50 (HFF): 2.32 µM
IC50 (HT-29): 69.3 µM
IC50 (HepG2 [7]): 0.086 µM
IC50 (T47D): 0.07 µM

C[C@]12CC[C@H](O)CC1=CCC1C2CC[C@@]2(C)C1CC[C@@H]2C1=CC2(C(=O)Nc3ccc(F)cc32)C(C#N)=C(N)N1 (stereo partly drawn)
IC50 (A549 [8]): 21.3 µM
IC50 (ECa-109 cell line): 2.6 µM
IC50 (SMMC-7721): 10.9 µM
IC50 (MGC-803): 13.8 µM

COc1ccc(C2=NOC3(Cc4ccccc4C3=O)C2c2ccc(S(C)(=O)=O)cc2)cc1OC (stereo not drawn)
IC50 (MCF7 [6]): 53.7 µM
IC50 (HFF): 33.9 µM
IC50 (HT-29): 94.6 µM
IC50 (HepG2 [7]): 0.059 µM
IC50 (T47D): 21.4 µM

O=C(/C=C/c1cccc(F)c1)c1ccc(OP2(Oc3ccc(C(=O)/C=C/c4cccc(F)c4)cc3)=NP3(=NP4(=N2)Oc2ccccc2-c2ccccc2O4)Oc2ccccc2-c2ccccc2O3)cc1
Activity (PC-3): 43.71%
Activity (LNCaP): 63.78%

CCN1C(=O)C2(c3ccccc31)N(C)CC(n1ccc3ccccc31)C2(C#N)C#N (stereo not drawn)
Activity (A-375 [4]): 85.69%
Activity (A-375 [5]): 95.86%

C[C@]12CC[C@H](O)CC1=CCC1C2CC[C@@]2(C)C1CC[C@@H]2C1=CC2(C(=O)Nc3c(Cl)cccc32)C(C#N)=C(N)N1 (stereo partly drawn)
IC50 (A549 [8]): 33 µM
IC50 (ECa-109 cell line): 6.4 µM
IC50 (SMMC-7721): 29.2 µM
IC50 (MGC-803): 17.2 µM

CN1C(=O)N(C)C(=O)C2(CC3(C(=O)c4ccccc4C3=O)N(C)[C@H]2c2ccccc2)C1=O
IC50 (HeLa [9]): 4.3 µM
IC50 (B16-F10): 3.5 µM

CCOC(=O)N1CCC2(CC1)NC(=O)c1ccccc1N2
inhibition [1]: 100%

NC(=O)C1CN(C(=O)N2CCCCC2)C2(C(=O)Nc3ccccc32)C1c1ccccc1O (stereo not drawn)
inhibition [10]: 65.4%

O=C(c1ccccn1)[C@@H]1[C@@H](c2ccccc2Cl)[C@H](c2ccccc2)NC12C(=O)Nc1ccccc12 (stereo partly drawn)
IC50 (HeLa [11]): 70 µg/mL (≈ 146 µM)
IC50 [12]: > 110 µg/mL

CCOC(=O)[C@H]1[C@@H](NO)[C@@H]2c3ccccc3OC(C)(C)[C@H]2[C@H](O)[C@]12C(=O)Nc1ccc(Cl)cc12
IC50 (MCF7 [13]): 1.7 µM
IC50 (HCT-116): 13 µM
IC50 [14]: 37.5 µM
IC50 (A549 [15]): 5.9 µM
IC50 (HepG2 [16]): 18.4 µM

CN1C(=O)N(C)C(=O)C2(CC3(C(=O)c4ccccc4C3=O)N(C)[C@H]2c2ccc(Br)cc2)C1=O
IC50 (HeLa [9]): 7.3 µM
IC50 (B16-F10): 5.2 µM

CCOC(=O)[C@H]1[C@@H](NO)[C@@H]2c3ccccc3OC(C)(C)[C@H]2[C@H](O)[C@]12C(=O)Nc1ccc(F)cc12
IC50 (MCF7 [13]): 2.5 µM
IC50 (HCT-116): 25.4 µM
IC50 [14]: 41.9 µM
IC50 (A549 [15]): 4.8 µM
IC50 (HepG2 [16]): 16.2 µM

CCC(C)N1C(=O)C2(C(C#N)=C(N)Oc3c2c(=O)oc2ccccc32)c2ccccc21 (stereo not drawn)
IC50 (MCF7 [2]): 37.6 µM
IC50 (A549 [3]): 34.1 µM

CCOC(=O)C1CN(C(=O)N2CCCCC2)C2(C(=O)Nc3ccccc32)C1c1ccccc1O (stereo not drawn)
inhibition [10]: 57.7%

Cc1cc(Cl)ccc1[C@@H]1N(C)C2(CC13C(=O)N(C)C(=O)N(C)C3=O)C(=O)c1ccccc1C2=O
IC50 (HeLa [9]): 434 µM
IC50 (B16-F10): 8.4 µM

O=C(c1ccccn1)[C@@H]1[C@@H](c2ccc(Cl)cc2Cl)[C@H](c2ccccc2)NC12C(=O)Nc1ccccc12 (stereo partly drawn)
IC50 (HeLa [11]): 16 µg/mL (≈ 31.1 µM)
IC50 [12]: 17 µg/mL (≈ 33 µM)

Cc1ccccc1/C=C/C(=O)c1ccc(OP2(Oc3ccc(C(=O)/C=C/c4ccccc4)cc3)=NP3(=NP4(=N2)Oc2ccccc2-c2ccccc2O4)Oc2ccccc2-c2ccccc2O3)cc1 (stereo not drawn)
Activity (PC-3): 42.36%
Activity (LNCaP): 69.04%

Clc1cccc(Cl)c1C1=NO[C@@]2(CCCCO2)[C@H]1Br
IC50 (MDA-MB-231): 43.1 µM
IC50 (MCF7 [17]): 52.4 µM
